Test results as given in patent publication US8637684B2, “Tautomycetin and tautomycetin analog biosynthesis” (Wisconsin Alumni Research Foundation, priority 2010, dated 2014).

Columns and labels:
PP2A = conditions: literature values; cited from earlier work
SHP2 = target: T1, SHP2 (Homo sapiens, UniProt Q06124); test: Ki measurement, steady-state kinetic analysis of SHP2-catalyzed pNPP hydrolysis; assay type: biochemical
T1 construct: The expression and purification of the SHP2 catalytic domain (residues 262-528) were described previously; made in house
T1 sequence (Q06124 262-528): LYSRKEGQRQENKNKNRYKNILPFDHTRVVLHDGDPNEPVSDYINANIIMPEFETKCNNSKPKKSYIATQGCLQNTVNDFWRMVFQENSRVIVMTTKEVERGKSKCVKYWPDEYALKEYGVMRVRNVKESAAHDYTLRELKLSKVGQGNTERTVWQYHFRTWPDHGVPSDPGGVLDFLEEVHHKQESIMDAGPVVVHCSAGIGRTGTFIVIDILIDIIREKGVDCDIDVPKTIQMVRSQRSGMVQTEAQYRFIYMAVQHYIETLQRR
Procedure: The SHP2-catalyzed hydrolysis of pNPP in the presence of TTN or TTN D-1 was assayed at 25° C. and in the assay buffer described above. The mode of inhibition and K, value were determined in the following manner. At various fixed concentrations of the inhibitor (0-3 Ki), the initial rate at a series of pNPP concentrations was measured by following the production of p-nitrophenol as describe above, ranging from 0.2- to 5-fold the apparent Km values. The data were fitted to appropriate equations using SigmaPlot-Enzyme Kinetics to obtain the inhibition constant and to assess the mode of inhibition.
To further characterize SHP2 inhibition by the TTN and TTN D-1, the IC50 values for TTN and TTN D-1 were measured at a pNPP concentration fixed at the experimentally determined Km for each PTP. […] To establish the mechanism of SHP2 inhibition by TTN and TTN D-1, the inhibition constants and mode of inhibition were determined by steady-state kinetic analysis of the SHP2-catalyzed reaction.

VHR = VHR (Homo sapiens, UniProt P51452); test: PTP activity assay with pNPP as substrate: VHR; assay type: biochemical; conditions: pNPP as substrate at Km, pH 7.0, 25° C., I = 0.15 M
VHR, sequence (P51452 whole entry, species assumed): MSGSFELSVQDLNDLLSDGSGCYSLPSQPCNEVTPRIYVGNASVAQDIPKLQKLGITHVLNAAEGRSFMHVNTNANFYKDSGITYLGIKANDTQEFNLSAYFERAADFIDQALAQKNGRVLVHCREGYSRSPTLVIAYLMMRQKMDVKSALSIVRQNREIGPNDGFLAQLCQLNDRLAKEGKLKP
Procedure: (§1) The PTP activity was assayed using pNPP as a substrate at 25° C. in 50 mM 3,3-dimethylglutarate buffer, pH 7.0, containing 1 mM EDTA with an ionic strength of 0.15 M adjusted by NaCl. TTM, TTN and the engineered analogs were analyzed for inhibition of a panel of PTPs at 10 μM compound concentration. For each enzyme screened, test compounds were diluted to 20 μM in 100 μL and combined with 50 μL pNPP at a concentration of 4×Km. The reaction was initiated by the addition of 50 μL of 4× concentrated enzyme and pNPP was allowed to convert to the product p-nitrophenol. The reaction was quenched by the addition of 50 μL of 5N NaOH. Nonenzymatic hydrolysis of pNPP was corrected by measuring the control without the addition of enzyme. Production of p-nitrophenol was monitored by a Spectra MAX385 microplate spectrophotometer (Molecular Devices) at 405 nm using a molar extinction coefficient of 18,000 M^−1 cm^−1. IC50 values were calculated by fitting the absorbance at 405 nm versus inhibitor concentration to the following equation: AI/A0=IC50/(IC50+[I]) where AI is the absorbance at 405 nm of the sample in the presence of inhibitor; Ao is the absorbance at 405 nm in the absence of inhibitor; and [I] is the concentration of the inhibitor.

[1] = literature (Luo et al., 2007; Mitsuhashi et al., 2003, 2008); cited from earlier work
PTPα = PTPα (Homo sapiens, UniProt P18433); test: PTP activity assay with pNPP as substrate: PTPα; assay type: biochemical; conditions: pNPP as substrate at Km, pH 7.0, 25° C., I = 0.15 M
PTPα, sequence (P18433 20-802): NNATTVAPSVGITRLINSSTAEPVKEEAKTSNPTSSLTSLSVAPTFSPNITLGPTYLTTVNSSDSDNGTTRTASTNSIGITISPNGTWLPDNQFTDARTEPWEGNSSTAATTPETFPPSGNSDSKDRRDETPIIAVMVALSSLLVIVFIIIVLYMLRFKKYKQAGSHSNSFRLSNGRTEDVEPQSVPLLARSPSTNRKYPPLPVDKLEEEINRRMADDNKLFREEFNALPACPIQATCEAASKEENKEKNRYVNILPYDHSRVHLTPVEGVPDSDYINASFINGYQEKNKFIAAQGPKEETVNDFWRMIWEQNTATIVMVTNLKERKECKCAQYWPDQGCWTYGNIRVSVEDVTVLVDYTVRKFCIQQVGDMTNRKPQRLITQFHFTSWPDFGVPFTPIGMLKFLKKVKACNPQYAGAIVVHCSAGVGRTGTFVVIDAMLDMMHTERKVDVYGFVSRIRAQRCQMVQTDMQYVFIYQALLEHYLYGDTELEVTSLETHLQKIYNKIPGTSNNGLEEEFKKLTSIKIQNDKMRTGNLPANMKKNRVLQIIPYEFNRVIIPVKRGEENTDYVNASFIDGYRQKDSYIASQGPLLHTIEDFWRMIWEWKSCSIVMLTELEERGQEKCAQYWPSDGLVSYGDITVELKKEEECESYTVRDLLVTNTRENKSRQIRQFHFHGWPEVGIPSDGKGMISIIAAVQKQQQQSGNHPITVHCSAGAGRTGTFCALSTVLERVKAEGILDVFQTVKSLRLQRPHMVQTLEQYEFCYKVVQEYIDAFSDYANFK
Procedure: as §1

Lyp = target: T2, Lyp (Homo sapiens, UniProt Q9Y2R2); test: PTP activity assay with pNPP as substrate: Lyp; assay type: biochemical; conditions: pNPP as substrate at Km, pH 7.0, 25° C., I = 0.15 M
T2 sequence (Q9Y2R2 1-807): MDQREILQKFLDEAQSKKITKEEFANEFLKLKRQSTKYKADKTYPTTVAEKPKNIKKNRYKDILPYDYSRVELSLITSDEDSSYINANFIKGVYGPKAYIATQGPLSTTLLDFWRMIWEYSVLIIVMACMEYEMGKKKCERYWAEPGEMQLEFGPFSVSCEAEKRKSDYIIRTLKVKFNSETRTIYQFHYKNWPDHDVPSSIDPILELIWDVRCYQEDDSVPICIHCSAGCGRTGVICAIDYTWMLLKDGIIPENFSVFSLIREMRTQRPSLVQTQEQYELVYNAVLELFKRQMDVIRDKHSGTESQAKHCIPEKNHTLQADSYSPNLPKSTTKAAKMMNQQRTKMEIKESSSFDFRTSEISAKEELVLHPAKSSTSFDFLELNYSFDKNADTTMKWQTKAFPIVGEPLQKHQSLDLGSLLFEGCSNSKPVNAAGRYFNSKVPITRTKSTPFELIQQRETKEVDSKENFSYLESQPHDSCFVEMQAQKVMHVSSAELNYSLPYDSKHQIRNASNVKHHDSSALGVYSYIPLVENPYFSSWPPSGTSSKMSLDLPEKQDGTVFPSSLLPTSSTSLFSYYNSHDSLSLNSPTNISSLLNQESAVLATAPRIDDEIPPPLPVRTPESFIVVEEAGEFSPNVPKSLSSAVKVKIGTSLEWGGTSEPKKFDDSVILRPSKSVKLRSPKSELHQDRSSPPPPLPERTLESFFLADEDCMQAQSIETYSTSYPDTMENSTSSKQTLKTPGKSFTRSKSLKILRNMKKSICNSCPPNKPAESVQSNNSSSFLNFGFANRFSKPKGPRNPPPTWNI
Procedure: as §1

[2] = tested on: GM-CSF induced ERK1/2 activation in macrophage progenitors; test: GM-CSF induced ERK1/2 activation in macrophage progenitors, immunoblot; assay type: cell-based; conditions: 2 μM TTN for 2 hours, GM-CSF 50 ng/mL
Procedure: Bone marrow low density mononuclear cells (LDMNCs) were transduced with MIEG3 (empty vector), MIEG3-WT SHP2, or MIEG3-SHP2/E76K, sorted based on enhanced green fluorescent protein (EGFP) expression, and cultured for 5 days in M-CSF 100 ng/mL to generate macrophage progenitors, as previously described (Chan et al., 2005). Cells were serum- and growth factor-deprived for 16 hours, treated with 2 μM TTN for 2 hours, and stimulated with GM-CSF 50 ng/mL followed by preparation of protein extracts. Extracts were evaluated by immunoblot using α-phospho-ERK1/2 for activated ERK levels and α-ERK1/2 for total ERK levels (Cell Signaling Technology, Beverly, Mass.).
For biochemical studies, macrophage progenitor cells expressing empty vector (MIEG3), wild-type SHP2, or SHP2/E76K were serum- and growth factor-deprived for […]. Cells were pre-treated with DMSO or 2 μM TTN for 2 hours, and then cultures either remained unstimulated or were stimulated with GM-CSF at 50 ng/mL for 60 minutes. […] They next examined the effect of TTN on GM-CSF-stimulated hyperproliferation of SHP2/E76K-expressing hematopoietic progenitors. […] To provide further evidence that SHP2 is a molecular target of TTN, the inventors determined the X-ray crystal structure of SHP2 in complex with TTN D-1, as crystallization attempts for the SHP2-TTN complex were unsuccessful. […]

**Q.** Which IC50 (PP2A) does the source give for tautomycetin [TTN] here?
**A.** The IC50 was 0.062 µM.

**Q.** And the “mode of inhibition of the SHP2-catalyzed reaction” value (SHP2; Lineweaver-Burk, FIG. 2)?
**A.** The value was “competitive inhibitors”.

**Q.** And the Ki (SHP2; pNPP, 25° C., pH 7.0)?
**A.** The Ki was 1.6 ± 0.1 µM.

**Q.** And the IC50 (VHR)?
**A.** Its IC50 is greater than 50 µM.

**Q.** And the “concentrations required to exert a cellular effect” value [1]?
**A.** Its value is 1 to 5 µM.

**Q.** What about the IC50 (PTPα) of the same substance?
**A.** The IC50 was greater than 50 µM.

**Q.** What about the IC50 (Lyp) of the same substance?
**A.** The IC50 was 20 µM.

**Q.** And the “effect on ERK1/2 hyperactivation in SHP2/E76K-expressing cells” value [2]?
**A.** Its value is “effectively inhibited”.

**Q.** And the “effect on GM-CSF induced ERK1/2 activation in macrophage progenitors” value [2]?
**A.** The value was “abrogated”.
